Measurements from ChEMBL document CHEMBL4433269, “Design, synthesis and evaluation of biphenyl imidazole analogues as potent antifungal agents” (Bioorg Med Chem Lett, 2019).

What was measured:
Cryptococcus neoformans = assay: Antifungal activity against Cryptococcus neoformans cgmcc 2.3161 assessed as inhibition of visible microbe growth by broth microdilution method; type: functional
Candida albicans [1] = assay: Antifungal activity against Candida albicans CPCC 400523 assessed as inhibition of visible microbe growth by broth microdilution method; type: functional
Aspergillus fumigatus = assay: Antifungal activity against Aspergillus fumigatus cgmcc 3.7795 assessed as inhibition of visible microbe growth by broth microdilution method; type: functional
Candida tropicalis = assay: Antifungal activity against Candida tropicalis cgmcc 2.3739 assessed as inhibition of visible microbe growth by broth microdilution method; type: functional
Candida albicans [2] = assay: Antifungal activity against Candida albicans ATCC SC5314 assessed as inhibition of visible microbe growth by broth microdilution method; type: functional
U-87 MG = assay: Cytotoxicity in human U87 cells assessed as reduction in cell viability incubated for 24 hrs by MTT assay; type: cell-based, U-87MG ATCC
A549 = assay: Cytotoxicity in human A549 cells assessed as reduction in cell viability incubated for 24 hrs by MTT assay; type: cell-based; details: A549, 24 h
Cytochrome P450 2D6 = Cytochrome P450 2D6 (Homo sapiens, UniProt P10635); assay: Inhibition of CYP2D6 in human liver microsomes using dextromethorphan pre-incubated for 10 mins before NADPH addition and measured after 10 mins by LC/MS/MS analysis; type: ADME
Cytochrome P450 2D6, sequence (P10635 whole entry): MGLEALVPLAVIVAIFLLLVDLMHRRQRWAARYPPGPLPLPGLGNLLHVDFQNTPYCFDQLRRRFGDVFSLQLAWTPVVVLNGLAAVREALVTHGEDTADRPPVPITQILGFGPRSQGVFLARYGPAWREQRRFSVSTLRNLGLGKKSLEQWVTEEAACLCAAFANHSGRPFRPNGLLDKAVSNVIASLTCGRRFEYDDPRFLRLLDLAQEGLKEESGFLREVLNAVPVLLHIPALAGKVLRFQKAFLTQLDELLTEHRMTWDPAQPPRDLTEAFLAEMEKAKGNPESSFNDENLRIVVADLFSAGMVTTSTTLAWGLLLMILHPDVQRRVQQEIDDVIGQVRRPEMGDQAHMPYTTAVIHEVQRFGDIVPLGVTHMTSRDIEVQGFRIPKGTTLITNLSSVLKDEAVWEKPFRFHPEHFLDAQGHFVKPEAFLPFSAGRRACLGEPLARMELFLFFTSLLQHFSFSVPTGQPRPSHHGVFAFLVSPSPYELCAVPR

Cytochrome P450 3A4 = Cytochrome P450 3A4 (Homo sapiens, UniProt P08684); assay: Inhibition of CYP3A4 in human liver microsomes using midazolam pre-incubated for 10 mins before NADPH addition and measured after 10 mins by LC/MS/MS analysis; type: ADME
Cytochrome P450 3A4, sequence (P08684 whole entry): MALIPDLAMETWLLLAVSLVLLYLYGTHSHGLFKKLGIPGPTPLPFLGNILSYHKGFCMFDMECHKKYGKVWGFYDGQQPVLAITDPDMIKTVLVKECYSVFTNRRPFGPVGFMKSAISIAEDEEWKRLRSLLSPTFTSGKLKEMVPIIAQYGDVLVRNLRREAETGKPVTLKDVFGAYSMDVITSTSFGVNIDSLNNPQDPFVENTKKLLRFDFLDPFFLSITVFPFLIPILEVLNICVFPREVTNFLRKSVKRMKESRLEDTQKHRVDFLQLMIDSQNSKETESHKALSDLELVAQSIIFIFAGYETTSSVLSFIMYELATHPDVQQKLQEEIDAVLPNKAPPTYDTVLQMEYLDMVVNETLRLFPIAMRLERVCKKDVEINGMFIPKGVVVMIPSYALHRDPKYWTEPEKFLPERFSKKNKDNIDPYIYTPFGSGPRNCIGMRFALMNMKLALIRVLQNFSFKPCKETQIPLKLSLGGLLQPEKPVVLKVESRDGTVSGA

Cytochrome P450 2C9 = Cytochrome P450 2C9 (Homo sapiens, UniProt P11712); assay: Inhibition of CYP2C9 in human liver microsomes using diclofenac pre-incubated for 10 mins before NADPH addition and measured after 10 mins by LC/MS/MS analysis; type: ADME
Cytochrome P450 2C9, sequence (P11712 whole entry): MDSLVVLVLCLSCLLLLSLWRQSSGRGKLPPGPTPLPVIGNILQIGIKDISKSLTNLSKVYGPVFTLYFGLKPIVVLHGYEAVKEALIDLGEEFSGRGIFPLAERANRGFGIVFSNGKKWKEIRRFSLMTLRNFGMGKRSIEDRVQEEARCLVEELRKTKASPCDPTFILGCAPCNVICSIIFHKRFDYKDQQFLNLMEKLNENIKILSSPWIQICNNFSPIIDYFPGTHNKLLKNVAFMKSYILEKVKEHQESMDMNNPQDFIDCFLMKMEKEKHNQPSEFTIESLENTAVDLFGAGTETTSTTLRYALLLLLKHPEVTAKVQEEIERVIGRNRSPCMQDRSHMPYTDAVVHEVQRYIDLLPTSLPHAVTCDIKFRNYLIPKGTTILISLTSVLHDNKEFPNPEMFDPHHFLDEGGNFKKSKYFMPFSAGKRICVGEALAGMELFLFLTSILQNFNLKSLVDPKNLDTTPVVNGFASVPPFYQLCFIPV

Cytochrome P450 2C19 = Cytochrome P450 2C19 (Homo sapiens, UniProt P33261); assay: Inhibition of CYP2C19 in human liver microsomes using S-mephenytoin pre-incubated for 10 mins before NADPH addition and measured after 10 mins by LC/MS/MS analysis; type: ADME
Cytochrome P450 2C19, sequence (P33261 whole entry): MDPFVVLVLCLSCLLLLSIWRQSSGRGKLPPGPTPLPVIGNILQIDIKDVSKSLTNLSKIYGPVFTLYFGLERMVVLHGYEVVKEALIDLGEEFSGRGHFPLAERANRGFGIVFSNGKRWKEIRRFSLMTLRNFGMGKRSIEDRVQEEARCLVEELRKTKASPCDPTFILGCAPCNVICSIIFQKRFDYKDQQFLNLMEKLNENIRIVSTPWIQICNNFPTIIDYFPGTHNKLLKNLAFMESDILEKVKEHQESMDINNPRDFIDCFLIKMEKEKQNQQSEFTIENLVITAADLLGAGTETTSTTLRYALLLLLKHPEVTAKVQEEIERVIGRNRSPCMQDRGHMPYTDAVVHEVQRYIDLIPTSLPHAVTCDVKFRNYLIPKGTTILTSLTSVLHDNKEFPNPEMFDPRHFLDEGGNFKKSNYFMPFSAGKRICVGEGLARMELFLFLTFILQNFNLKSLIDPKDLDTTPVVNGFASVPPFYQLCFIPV

Candida albicans [3] = assay: Antifungal activity against fluconazole-resistant Candida albicans 100 assessed as inhibition of visible microbe growth by broth microdilution method; type: functional
Cytochrome P450 1A2 = target: T1, Cytochrome P450 1A2 (Homo sapiens, UniProt P05177); assay: Inhibition of CYP1A2 in human liver microsomes using phenacetin pre-incubated for 10 mins before NADPH addition and measured after 10 mins by LC/MS/MS analysis; type: ADME
T1 sequence (P05177 whole entry): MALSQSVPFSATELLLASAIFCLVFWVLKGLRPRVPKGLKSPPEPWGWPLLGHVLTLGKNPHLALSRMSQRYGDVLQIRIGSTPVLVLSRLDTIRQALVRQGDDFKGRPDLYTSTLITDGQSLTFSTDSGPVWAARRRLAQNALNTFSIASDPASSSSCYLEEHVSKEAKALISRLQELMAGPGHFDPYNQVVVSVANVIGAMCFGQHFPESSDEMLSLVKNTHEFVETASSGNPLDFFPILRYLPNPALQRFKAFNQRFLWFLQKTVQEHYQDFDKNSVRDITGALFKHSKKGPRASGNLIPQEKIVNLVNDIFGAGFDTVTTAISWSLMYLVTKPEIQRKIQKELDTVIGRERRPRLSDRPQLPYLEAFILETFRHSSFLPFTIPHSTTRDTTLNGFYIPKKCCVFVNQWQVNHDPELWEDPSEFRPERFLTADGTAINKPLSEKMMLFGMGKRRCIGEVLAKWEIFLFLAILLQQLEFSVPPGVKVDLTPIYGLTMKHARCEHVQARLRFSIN

Candida albicans [4] = assay: Antifungal activity against fluconazole-resistant Candida albicans 103 assessed as inhibition of visible microbe growth by broth microdilution method; type: functional

SMILES | MIC (Cryptococcus neoformans) [µg/mL] | MIC (Candida albicans [1]) [µg/mL] | MIC (Aspergillus fumigatus) [µg/mL] | MIC (Candida tropicalis) [µg/mL] | MIC (Candida albicans [2]) [µg/mL] | IC50 (U-87 MG) [µM] | IC50 (A549) [µM] | IC50 (Cytochrome P450 2D6) [µM] | IC50 (Cytochrome P450 3A4) [µM] | IC50 (Cytochrome P450 2C9) [µM] | IC50 (Cytochrome P450 2C19) [µM] | MIC (Candida albicans [3]) [µg/mL] | IC50 (Cytochrome P450 1A2) [µM] | MIC (Candida albicans [4]) [µg/mL]
CC(C)COC(=O)[C@H](Cn1ccnc1)NC(=O)c1ccc(-c2ccccc2)cc1F | > 16 | 0.0312 | 8 | 0.0312 | 0.25 | – | – | – | – | – | – | – | – | –
CC(C)OC(=O)[C@H](Cn1ccnc1)NC(=O)c1ccc(-c2ccccc2)c(Cl)c1 | 8 | 8 | > 16 | 1 | 8 | – | – | – | – | – | – | – | – | –
CC(C)OC(=O)[C@H](Cn1ccnc1)NC(=O)c1ccc(-c2ccccc2)c(F)c1 | 8 | 0.0312 | 2 | 0.0312 | 0.5 | > 50 | > 50 | > 50 | 4.05 | > 50 | 43.4 | 8 | > 50 | 2
CC(C)OC(=O)[C@H](Cn1ccnc1)NC(=O)c1c(F)cc(-c2ccccc2)cc1F | > 16 | 2 | > 16 | 0.5 | 0.5 | – | – | – | – | – | – | – | – | –
CC(C)COC(=O)[C@H](Cn1ccnc1)NC(=O)c1ccc(-c2ccccc2F)c(F)c1 | > 16 | 0.0625 | > 16 | 0.0625 | 0.25 | – | – | – | – | – | – | 8 | – | 4
CC(C)OC(=O)[C@H](Cn1ccnc1)NC(=O)c1ccc(-c2ccccc2F)c(F)c1 | 8 | 0.0312 | > 16 | 0.0312 | 0.0625 | – | – | – | – | – | – | 16 | – | 2
CC(C)COC(=O)[C@H](Cn1ccnc1)NC(=O)c1ccc(-c2ccccc2)c(F)c1 | > 16 | 0.0312 | 4 | 0.0312 | 0.25 | – | – | – | – | – | – | – | – | –
COc1cc(-c2ccccc2)ccc1C(=O)N[C@@H](Cn1ccnc1)C(=O)OC(C)C | > 16 | 1 | > 16 | 1 | 8 | – | – | – | – | – | – | – | – | –
Cc1cc(-c2ccccc2)ccc1C(=O)N[C@@H](Cn1ccnc1)C(=O)OCC(C)C | > 16 | 2 | > 16 | 0.5 | > 16 | – | – | – | – | – | – | – | – | –
Cc1cc(-c2ccccc2)ccc1C(=O)N[C@@H](Cn1ccnc1)C(=O)OC(C)C | > 16 | 2 | > 16 | 0.5 | > 16 | – | – | – | – | – | – | – | – | –
CC(C)OC(=O)[C@H](Cn1ccnc1)NC(=O)c1ccc(-c2ccccc2F)cc1F | > 16 | 0.125 | > 16 | 0.25 | 0.5 | – | – | – | – | – | – | – | – | –
CC(C)OC(=O)[C@H](Cn1ccnc1)NC(=O)c1ccc(-c2ccc(C#N)cc2)cc1F | > 16 | 4 | > 16 | 2 | 8 | – | – | – | – | – | – | – | – | –
CC(C)OC(=O)[C@H](Cn1ccnc1)NC(=O)c1ccc(-c2ccccc2)cc1Cl | 8 | 8 | > 16 | 0.5 | 4 | – | – | – | – | – | – | – | – | –
CC(C)COC(=O)[C@H](Cn1ccnc1)NC(=O)c1ccc(-c2ccccc2)c(Cl)c1 | 8 | 8 | > 16 | 0.25 | 4 | – | – | – | – | – | – | – | – | –
CC(C)OC(=O)[C@H](Cn1ccnc1)NC(=O)c1ccc(-c2ccccc2)cc1F | > 16 | 0.0312 | 4 | 0.0312 | 0.25 | > 50 | > 50 | 19.1 | 0.0429 | 4.49 | 7.44 | 16 | > 50 | 4
CC(C)COC(=O)[C@H](Cn1ccnc1)NC(=O)c1ccc(-c2ccc(C#N)cc2)cc1F | > 16 | > 16 | > 16 | 0.5 | > 16 | – | – | – | – | – | – | – | – | –
Cc1cc(C(=O)N[C@@H](Cn2ccnc2)C(=O)OC(C)C)ccc1-c1ccccc1 | > 16 | > 16 | > 16 | 8 | > 16 | – | – | – | – | – | – | – | – | –
CC(C)COC(=O)[C@H](Cn1ccnc1)NC(=O)c1ccc(-c2ccccc2)cc1Cl | 8 | 8 | > 16 | 0.25 | 4 | – | – | – | – | – | – | – | – | –
Cc1cc(C(=O)N[C@@H](Cn2ccnc2)C(=O)OCC(C)C)ccc1-c1ccccc1 | > 16 | > 16 | > 16 | 4 | > 16 | – | – | – | – | – | – | – | – | –
CC(C)COC(=O)[C@H](Cn1ccnc1)NC(=O)c1ccc(-c2ccccc2F)cc1F | > 16 | 0.125 | > 16 | 0.25 | 0.5 | – | – | – | – | – | – | – | – | –
COc1cc(-c2ccccc2)ccc1C(=O)N[C@@H](Cn1ccnc1)C(=O)OCC(C)C | > 16 | 4 | > 16 | 2 | > 16 | – | – | – | – | – | – | – | – | –
CC(C)COC(=O)[C@H](Cn1ccnc1)NC(=O)c1c(F)cc(-c2ccccc2)cc1F | > 16 | 2 | > 16 | 2 | 0.5 | – | – | – | – | – | – | – | – | –
OC(Cn1cncn1)(Cn1cncn1)c1ccc(F)cc1F [FLUCONAZOLE] | 4 | 1 | > 16 | 1 | 0.5 | – | – | – | – | – | – | > 64 | – | > 64
CCC(C)n1ncn(-c2ccc(N3CCN(c4ccc(OCC5COC(Cn6cncn6)(c6ccc(Cl)cc6Cl)O5)cc4)CC3)cc2)c1=O (centres undefined) [ITRACONAZOLE] | 1 | 0.25 | 4 | 0.5 | 0.0625 | – | – | – | – | – | – | – | – | –
